Laboratory results reported in ChEMBL document CHEMBL4507283, “Data for DCP probe BI-1935” (2021).

Key:
[1] = target: Type-1 angiotensin II receptor (Oryctolagus cuniculus) (UniProt P34976); experiment: AT1 Eurofins-Panlabs selectivity data (BI); settings: Homo sapiens; Compound concentration 10.0 uM
[2] = target: Casein kinase I isoform alpha (Homo sapiens) (UniProt P48729); settings: Compound concentration 1000.0 nM
[3] = target: Dual specificity mitogen-activated protein kinase kinase 6 (Homo sapiens) (UniProt P52564); settings: Compound concentration 1000.0 nM
[4] = target: Tyrosine-protein kinase ABL2 (Homo sapiens) (UniProt P42684); settings: Compound concentration 1000.0 nM
[5] = target: Serine/threonine-protein kinase D2 (Homo sapiens) (UniProt Q9BZL6); settings: Compound concentration 1000.0 nM
[6] = target: Serine/threonine-protein kinase PLK3 (Homo sapiens) (UniProt Q9H4B4); settings: Compound concentration 1000.0 nM
[7] = target: Ephrin type-B receptor 6 (Homo sapiens) (UniProt O15197); settings: Compound concentration 1000.0 nM
[8] = target: Bone morphogenetic protein receptor type-1B (Homo sapiens) (UniProt O00238); settings: Compound concentration 1000.0 nM
[9] = target: Ribosomal protein S6 kinase beta-1 (Homo sapiens) (UniProt P23443); settings: Compound concentration 1000.0 nM
[10] = target: Serine/threonine-protein kinase PAK 2 (Homo sapiens) (UniProt Q13177); settings: Compound concentration 1000.0 nM
[11] = target: T1, Thromboxane-A synthase (Homo sapiens) (UniProt P24557); experiment: THRO SYN(HU) Eurofins-Panlabs selectivity data (BI)
T1 sequence (whole entry): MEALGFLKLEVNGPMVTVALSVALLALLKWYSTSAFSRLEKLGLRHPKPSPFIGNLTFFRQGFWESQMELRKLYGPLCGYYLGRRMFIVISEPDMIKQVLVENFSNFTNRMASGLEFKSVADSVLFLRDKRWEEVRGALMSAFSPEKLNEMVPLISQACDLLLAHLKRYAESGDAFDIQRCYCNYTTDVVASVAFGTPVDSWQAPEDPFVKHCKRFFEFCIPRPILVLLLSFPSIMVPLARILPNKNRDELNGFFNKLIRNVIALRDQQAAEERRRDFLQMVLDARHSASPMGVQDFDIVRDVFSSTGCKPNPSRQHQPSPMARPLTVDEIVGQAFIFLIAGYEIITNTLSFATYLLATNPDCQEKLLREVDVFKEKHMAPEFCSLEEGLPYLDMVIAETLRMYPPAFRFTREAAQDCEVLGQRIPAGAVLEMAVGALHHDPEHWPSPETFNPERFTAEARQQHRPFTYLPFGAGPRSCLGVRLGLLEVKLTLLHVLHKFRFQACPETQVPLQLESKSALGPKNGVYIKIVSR

[12] = target: SRSF protein kinase 1 (Homo sapiens) (UniProt Q96SB4); settings: Compound concentration 1000.0 nM
[13] = tested on: Epidermal growth factor receptor (Homo sapiens), P00533 [UNDEFINED MUTATION]; settings: Compound concentration 1000.0 nM
[14] = target: Serine/threonine-protein kinase tousled-like 1 (Homo sapiens) (UniProt Q9UKI8); settings: Compound concentration 1000.0 nM
[15] = target: Hormonally up-regulated neu tumor-associated kinase (Homo sapiens) (UniProt P57058); settings: Compound concentration 1000.0 nM
[16] = target: Leukotriene A-4 hydrolase (Cavia porcellus) (UniProt P19602); experiment: LTA4HYD Eurofins-Panlabs selectivity data (BI); settings: Compound concentration 10.0 uM
[17] = target: 5-hydroxytryptamine receptor 1D (Homo sapiens) (UniProt P28221); settings: Compound concentration 10.0 uM
[18] = target: Peripheral plasma membrane protein CASK (Homo sapiens) (UniProt O14936); settings: Compound concentration 1000.0 nM
[19] = target: Alpha-1A adrenergic receptor (Homo sapiens) (UniProt P35348); settings: Compound concentration 10.0 uM
[20] = target: Rhodopsin kinase GRK1 (Homo sapiens) (UniProt Q15835); settings: Compound concentration 1000.0 nM
[21] = target: Dual specificity mitogen-activated protein kinase kinase 2 (Homo sapiens) (UniProt P36507); settings: Compound concentration 1000.0 nM
[22] = target: Mitogen-activated protein kinase 6 (Homo sapiens) (UniProt Q16659); settings: Compound concentration 1000.0 nM
[23] = target: Megakaryocyte-associated tyrosine-protein kinase (Homo sapiens) (UniProt P42679); settings: Compound concentration 1000.0 nM
[24] = target: Phosphatidylinositol 4,5-bisphosphate 3-kinase catalytic subunit alpha isoform (Homo sapiens) (UniProt P42336); settings: Compound concentration 1000.0 nM
[25] = target: Cyclin-dependent kinase 11A (Homo sapiens) (UniProt Q9UQ88); settings: Compound concentration 1000.0 nM
[26] = target: Mitogen-activated protein kinase kinase kinase kinase 5 (Homo sapiens) (UniProt Q9Y4K4); settings: Compound concentration 1000.0 nM
[27] = tested on: Tyrosine-protein kinase ABL1 (Homo sapiens), P00519 [F317I]; settings: Compound concentration 1000.0 nM
[28] = target: SRSF protein kinase 3 (Homo sapiens) (UniProt Q9UPE1); settings: Compound concentration 1000.0 nM
[29] = target: Tyrosine-protein kinase SYK (Homo sapiens) (UniProt P43405); settings: Compound concentration 1000.0 nM
[30] = target: Phosphatidylinositol 5-phosphate 4-kinase type-2 beta (Homo sapiens) (UniProt P78356); settings: Compound concentration 1000.0 nM
[31] = target: Serine/threonine-protein kinase OSR1 (Homo sapiens) (UniProt O95747); settings: Compound concentration 1000.0 nM
[32] = target: Dual specificity mitogen-activated protein kinase kinase 4 (Homo sapiens) (UniProt P45985); settings: Compound concentration 1000.0 nM
[33] = target: Tyrosine-protein kinase Fes/Fps (Homo sapiens) (UniProt P07332); settings: Compound concentration 1000.0 nM
[34] = target: Receptor tyrosine-protein kinase erbB-4 (Homo sapiens) (UniProt Q15303); settings: Compound concentration 1000.0 nM
[35] = target: Serine/threonine-protein kinase PAK 1 (Homo sapiens) (UniProt Q13153); settings: Compound concentration 1000.0 nM
[36] = target: Tyrosine-protein kinase JAK1 (Homo sapiens) (UniProt P23458); settings: Compound concentration 1000.0 nM

Chain of Serine/threonine-protein kinase D2 (Homo sapiens) (Q9BZL6 whole entry): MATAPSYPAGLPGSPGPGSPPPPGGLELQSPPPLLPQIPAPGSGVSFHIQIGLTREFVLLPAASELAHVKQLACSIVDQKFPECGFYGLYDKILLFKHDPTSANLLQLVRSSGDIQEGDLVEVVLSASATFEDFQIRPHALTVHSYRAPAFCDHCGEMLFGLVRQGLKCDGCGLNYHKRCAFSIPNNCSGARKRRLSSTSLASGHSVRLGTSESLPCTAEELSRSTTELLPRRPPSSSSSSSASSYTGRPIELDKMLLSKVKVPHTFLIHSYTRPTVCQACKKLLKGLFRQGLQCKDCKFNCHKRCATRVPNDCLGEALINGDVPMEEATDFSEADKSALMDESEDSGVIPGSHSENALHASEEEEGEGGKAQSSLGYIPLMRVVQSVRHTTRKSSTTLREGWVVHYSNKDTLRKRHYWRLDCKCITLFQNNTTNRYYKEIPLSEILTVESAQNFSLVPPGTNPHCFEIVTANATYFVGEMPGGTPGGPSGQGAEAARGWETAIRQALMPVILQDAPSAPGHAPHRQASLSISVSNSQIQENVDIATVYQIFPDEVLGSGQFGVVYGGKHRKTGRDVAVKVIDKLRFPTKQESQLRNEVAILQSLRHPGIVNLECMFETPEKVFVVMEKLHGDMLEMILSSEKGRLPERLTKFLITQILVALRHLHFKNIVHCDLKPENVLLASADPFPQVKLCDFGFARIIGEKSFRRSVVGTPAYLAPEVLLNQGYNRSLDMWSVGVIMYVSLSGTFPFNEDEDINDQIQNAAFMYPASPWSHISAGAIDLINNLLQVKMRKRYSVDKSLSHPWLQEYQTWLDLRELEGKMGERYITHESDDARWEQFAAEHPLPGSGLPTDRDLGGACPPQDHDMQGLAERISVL
Chain of Cyclin-dependent kinase 11A (Homo sapiens) (Q9UQ88 whole entry): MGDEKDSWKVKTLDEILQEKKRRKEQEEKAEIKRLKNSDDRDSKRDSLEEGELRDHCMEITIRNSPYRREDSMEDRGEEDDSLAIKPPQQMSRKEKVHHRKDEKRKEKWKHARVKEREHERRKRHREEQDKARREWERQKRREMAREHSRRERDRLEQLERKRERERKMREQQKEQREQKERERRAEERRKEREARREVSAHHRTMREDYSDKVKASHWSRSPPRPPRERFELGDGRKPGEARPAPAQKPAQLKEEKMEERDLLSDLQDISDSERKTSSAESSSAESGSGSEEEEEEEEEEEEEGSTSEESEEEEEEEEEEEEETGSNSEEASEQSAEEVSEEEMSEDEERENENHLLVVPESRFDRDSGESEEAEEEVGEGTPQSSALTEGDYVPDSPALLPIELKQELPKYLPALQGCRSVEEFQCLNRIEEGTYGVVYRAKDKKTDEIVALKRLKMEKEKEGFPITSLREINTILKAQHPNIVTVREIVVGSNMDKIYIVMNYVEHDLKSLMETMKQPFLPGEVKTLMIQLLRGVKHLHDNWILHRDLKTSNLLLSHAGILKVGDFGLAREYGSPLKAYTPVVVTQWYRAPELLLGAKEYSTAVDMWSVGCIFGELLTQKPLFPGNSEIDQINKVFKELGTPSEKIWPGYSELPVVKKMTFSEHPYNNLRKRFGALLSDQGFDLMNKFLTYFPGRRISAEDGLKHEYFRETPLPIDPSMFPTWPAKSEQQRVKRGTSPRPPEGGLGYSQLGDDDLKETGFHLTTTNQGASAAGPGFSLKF
Chain of Dual specificity mitogen-activated protein kinase kinase 4 (Homo sapiens) (P45985 whole entry): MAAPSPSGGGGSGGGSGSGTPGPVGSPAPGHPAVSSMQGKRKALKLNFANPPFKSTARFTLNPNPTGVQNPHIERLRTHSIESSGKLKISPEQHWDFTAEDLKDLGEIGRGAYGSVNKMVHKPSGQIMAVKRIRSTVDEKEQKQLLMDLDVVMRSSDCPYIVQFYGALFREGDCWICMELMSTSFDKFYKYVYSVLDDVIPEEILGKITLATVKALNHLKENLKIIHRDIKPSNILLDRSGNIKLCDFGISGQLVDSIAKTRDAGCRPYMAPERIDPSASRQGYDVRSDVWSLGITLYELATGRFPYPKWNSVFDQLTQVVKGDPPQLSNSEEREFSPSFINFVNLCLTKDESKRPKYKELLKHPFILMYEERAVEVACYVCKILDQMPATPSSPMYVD
Chain of Mitogen-activated protein kinase kinase kinase kinase 5 (Homo sapiens) (Q9Y4K4 whole entry, looked up): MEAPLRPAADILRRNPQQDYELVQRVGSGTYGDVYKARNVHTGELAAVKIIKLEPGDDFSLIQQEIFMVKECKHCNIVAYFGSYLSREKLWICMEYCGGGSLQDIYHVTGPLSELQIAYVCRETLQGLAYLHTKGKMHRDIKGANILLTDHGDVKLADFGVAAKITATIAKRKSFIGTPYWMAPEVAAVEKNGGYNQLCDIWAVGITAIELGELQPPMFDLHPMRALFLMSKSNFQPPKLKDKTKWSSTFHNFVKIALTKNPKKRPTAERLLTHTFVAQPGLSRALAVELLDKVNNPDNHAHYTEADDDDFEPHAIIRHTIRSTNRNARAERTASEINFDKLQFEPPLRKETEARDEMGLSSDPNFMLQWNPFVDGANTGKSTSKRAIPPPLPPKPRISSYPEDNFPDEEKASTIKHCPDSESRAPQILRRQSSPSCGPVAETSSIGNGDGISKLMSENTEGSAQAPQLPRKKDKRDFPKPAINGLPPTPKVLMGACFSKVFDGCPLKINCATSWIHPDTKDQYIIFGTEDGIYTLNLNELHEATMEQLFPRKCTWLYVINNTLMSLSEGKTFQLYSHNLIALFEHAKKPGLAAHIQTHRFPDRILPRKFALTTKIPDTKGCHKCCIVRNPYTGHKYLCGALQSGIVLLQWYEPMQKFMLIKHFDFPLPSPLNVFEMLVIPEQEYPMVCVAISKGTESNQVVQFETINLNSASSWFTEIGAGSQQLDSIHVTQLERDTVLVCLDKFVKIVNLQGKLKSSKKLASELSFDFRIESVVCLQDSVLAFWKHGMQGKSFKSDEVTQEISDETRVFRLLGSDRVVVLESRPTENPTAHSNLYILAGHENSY
Chain of Hormonally up-regulated neu tumor-associated kinase (Homo sapiens) (P57058 whole entry): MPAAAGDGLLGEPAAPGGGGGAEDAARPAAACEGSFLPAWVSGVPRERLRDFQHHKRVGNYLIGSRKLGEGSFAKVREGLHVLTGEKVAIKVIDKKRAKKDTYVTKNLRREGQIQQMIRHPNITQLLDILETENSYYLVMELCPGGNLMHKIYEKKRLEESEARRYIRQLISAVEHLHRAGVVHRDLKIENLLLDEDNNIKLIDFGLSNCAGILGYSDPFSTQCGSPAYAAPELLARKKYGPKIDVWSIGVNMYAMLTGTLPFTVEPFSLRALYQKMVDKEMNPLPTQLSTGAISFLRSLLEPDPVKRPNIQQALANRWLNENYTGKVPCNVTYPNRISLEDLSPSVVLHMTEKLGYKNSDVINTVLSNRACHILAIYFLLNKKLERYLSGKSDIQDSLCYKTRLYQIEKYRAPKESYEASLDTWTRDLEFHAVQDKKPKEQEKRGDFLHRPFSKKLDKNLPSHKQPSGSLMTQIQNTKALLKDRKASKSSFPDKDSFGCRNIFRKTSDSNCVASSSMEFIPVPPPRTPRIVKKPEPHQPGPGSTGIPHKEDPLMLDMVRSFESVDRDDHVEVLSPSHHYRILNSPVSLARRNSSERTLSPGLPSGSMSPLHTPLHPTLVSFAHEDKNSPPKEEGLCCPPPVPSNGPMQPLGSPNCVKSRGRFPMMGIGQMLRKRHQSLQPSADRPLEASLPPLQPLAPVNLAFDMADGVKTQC
Chain of Serine/threonine-protein kinase PAK 2 (Homo sapiens) (Q13177 whole entry): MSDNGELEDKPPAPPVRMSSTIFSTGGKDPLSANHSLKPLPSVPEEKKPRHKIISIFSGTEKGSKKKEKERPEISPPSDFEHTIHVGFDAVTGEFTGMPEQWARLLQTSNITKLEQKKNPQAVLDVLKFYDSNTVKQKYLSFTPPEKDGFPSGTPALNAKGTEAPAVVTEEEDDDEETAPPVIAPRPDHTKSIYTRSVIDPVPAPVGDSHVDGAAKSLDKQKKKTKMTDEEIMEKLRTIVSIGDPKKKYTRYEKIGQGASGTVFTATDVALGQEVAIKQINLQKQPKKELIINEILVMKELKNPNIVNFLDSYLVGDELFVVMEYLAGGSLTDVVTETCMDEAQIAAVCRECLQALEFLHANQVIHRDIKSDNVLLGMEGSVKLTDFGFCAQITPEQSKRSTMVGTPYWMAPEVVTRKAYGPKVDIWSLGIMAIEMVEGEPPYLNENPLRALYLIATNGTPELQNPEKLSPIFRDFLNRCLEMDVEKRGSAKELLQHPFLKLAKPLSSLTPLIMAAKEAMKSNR
Chain of Casein kinase I isoform alpha (Homo sapiens) (P48729 2-337 limits assumed): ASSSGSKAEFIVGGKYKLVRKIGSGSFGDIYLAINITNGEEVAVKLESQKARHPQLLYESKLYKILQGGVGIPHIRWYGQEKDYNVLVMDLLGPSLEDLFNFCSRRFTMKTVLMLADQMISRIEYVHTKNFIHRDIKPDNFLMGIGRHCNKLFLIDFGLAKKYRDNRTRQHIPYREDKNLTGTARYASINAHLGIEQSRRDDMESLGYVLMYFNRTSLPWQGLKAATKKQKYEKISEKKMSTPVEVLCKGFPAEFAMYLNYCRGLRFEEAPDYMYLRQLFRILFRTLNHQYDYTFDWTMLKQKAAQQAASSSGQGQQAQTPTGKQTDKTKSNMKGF
Chain of Ribosomal protein S6 kinase beta-1 (Homo sapiens) (P23443 whole entry, looked up): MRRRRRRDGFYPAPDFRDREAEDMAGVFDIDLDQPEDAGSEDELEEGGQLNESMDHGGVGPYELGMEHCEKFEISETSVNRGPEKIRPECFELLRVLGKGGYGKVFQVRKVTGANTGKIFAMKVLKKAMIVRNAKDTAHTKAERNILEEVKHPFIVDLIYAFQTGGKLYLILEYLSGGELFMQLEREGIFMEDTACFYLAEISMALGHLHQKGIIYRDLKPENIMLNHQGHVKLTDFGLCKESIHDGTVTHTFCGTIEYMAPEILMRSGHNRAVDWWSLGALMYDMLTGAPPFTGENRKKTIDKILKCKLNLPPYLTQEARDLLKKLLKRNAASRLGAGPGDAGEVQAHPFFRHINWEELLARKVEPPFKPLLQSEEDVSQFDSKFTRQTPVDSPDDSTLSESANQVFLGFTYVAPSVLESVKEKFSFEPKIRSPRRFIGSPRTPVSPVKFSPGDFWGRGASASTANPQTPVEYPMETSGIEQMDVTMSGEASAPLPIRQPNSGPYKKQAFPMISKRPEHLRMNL

CCOCCn1cc(C(=O)Nc2ccc(-n3nc(-c4cccnc4)cc3C(F)(F)F)cn2)ccc1=O [BI 1935]
residual activity [1]: 93%
residual activity [2]: 74%
residual activity [3]: 100%
residual activity [4]: 87%
residual activity [5]: 100%
residual activity [6]: 84%
residual activity [7]: 94%
residual activity [8]: 71%
residual activity [9]: 97%
residual activity [10]: 84%
residual activity ([11]; Compound concentration 0.03 uM): 86%
residual activity ([11]; Compound concentration 0.1 uM): 57%
residual activity ([11]; Compound concentration 0.3 uM): 27%
residual activity ([11]; Compound concentration 1.0 uM): 13%
residual activity ([11]; Compound concentration 3.0 uM): 2%
residual activity ([11]; Compound concentration 10.0 uM): 4%
residual activity [12]: 98%
residual activity [13]: 96%
residual activity [14]: 100%
residual activity [15]: 93%
residual activity [16]: 111%
inhibition [17]: 0.593%
residual activity [18]: 85%
inhibition [19]: 29.3%
residual activity [20]: 74%
residual activity [21]: 94%
residual activity [22]: 100%
residual activity [23]: 90%
residual activity [24]: 92%
residual activity [25]: 100%
residual activity [26]: 95%
residual activity [27]: 74%
residual activity [28]: 100%
residual activity [29]: 100%
residual activity [30]: 68%
residual activity [31]: 92%
residual activity [32]: 80%
residual activity [33]: 82%
residual activity [34]: 100%
residual activity [35]: 96%
residual activity [36]: 37%
